Source: ChEMBL document CHEMBL3045084, “Synthesis, antitubercular activity, and QSAR analysis of substituted nitroaryl analogs: chalcone, pyrazole, isoxazole, and pyrimidines” (2013)
≈ marks a conversion by molar mass, not a printed value.

Tested on: Mycobacterium tuberculosis
Test: Antitubercular activity against Mycobacterium tuberculosis H37Rv ATCC 27294 assessed as growth inhibition after 28 days by agar dilution method
Format: functional
Conditions: for MIC: Mycobacterium tuberculosis, H37Rv ATCC 27294, 672 h

Row | SMILES | -logMIC | MIC [µM]
1 | O=[N+]([O-])c1ccc(C2=NC(=S)NC(c3cccc(Cl)c3)C2)cc1 (stereo not drawn) | 4.138 | 72.5 (≈ 25.1 µg/mL)
2 | COc1ccc(C2CC(c3ccc([N+](=O)[O-])cc3)=NN2)cc1 (stereo not drawn) |  | > 339
3 | O=[N+]([O-])c1ccc(C2=NOC(c3cccc(Cl)c3)C2)cc1 (stereo not drawn) |  | > 83.3
4 | COc1cc(C2CC(c3ccc([N+](=O)[O-])cc3)=NC(=S)N2)cc(OC)c1OC (stereo not drawn) | 3.601 | 249 (≈ 100 µg/mL)
5 | COc1ccc(/C=C/C(=O)c2ccc([N+](=O)[O-])cc2)cc1OC |  | > 79.9
6 | O=C1N=C(c2ccc([N+](=O)[O-])cc2)CC(c2ccc(Br)cc2)N1 (stereo not drawn) | 4.474 | 33.4 (≈ 12.5 µg/mL)
7 | COc1ccc(C2CC(c3ccc([N+](=O)[O-])cc3)=NC(=O)N2)cc1 (stereo not drawn) | 3.811 | 154 (≈ 50.1 µg/mL)
8 | COc1ccc(OC)c(C2CC(c3ccc([N+](=O)[O-])cc3)=NN2)c1 (stereo not drawn) | 3.813 | 154 (≈ 50.4 µg/mL)
9 | O=[N+]([O-])c1ccc(C2=NNC(c3ccc(Br)cc3)C2)cc1 (stereo not drawn) | 4.139 | 72.7 (≈ 25.2 µg/mL)
10 | O=C1N=C(c2ccc([N+](=O)[O-])cc2)CC(c2ccc(Cl)cc2)N1 (stereo not drawn) | 4.419 | 38 (≈ 12.5 µg/mL)
11 | O=[N+]([O-])c1ccc(C2=NNC(c3ccc(F)cc3)C2)cc1 (stereo not drawn) | 4.355 | 44.2 (≈ 12.6 µg/mL)
12 | CO[C@H]1/C=C/O[C@@]2(C)Oc3c(C)c(O)c4c(O)c(c(/C=N/N5CCN(C)CC5)c(O)c4c3C2=O)NC(=O)/C(C)=C\C=C\[C@H](C)[C@H](O)[C@@H](C)[C@@H](O)[C@@H](C)[C@H](OC(C)=O)[C@@H]1C [RIFAMPIN] | 6.924 | 0.119 (≈ 0.0979 µg/mL)
13 | COc1ccc(C2CC(c3ccc([N+](=O)[O-])cc3)=NO2)cc1OC (stereo not drawn) | 4.116 | 76.7 (≈ 25.2 µg/mL)
14 | COc1cccc(C2CC(c3ccc([N+](=O)[O-])cc3)=NC(=S)N2)c1 (stereo not drawn) | 3.531 | 293 (≈ 100 µg/mL)
15 | COc1ccc(C2CC(c3ccc([N+](=O)[O-])cc3)=NC(=S)N2)cc1OC (stereo not drawn) | 3.869 | 135 (≈ 50.1 µg/mL)
16 | O=[N+]([O-])c1ccc(C2=NOC(c3ccc(F)cc3)C2)cc1 (stereo not drawn) | 4.357 | 44 (≈ 12.6 µg/mL)
17 | O=[N+]([O-])c1ccc(C2=NOC(c3ccc(Cl)cc3Cl)C2)cc1 (stereo not drawn) | 4.428 | 37.3 (≈ 12.6 µg/mL)
18 | COc1cccc(C2CC(c3ccc([N+](=O)[O-])cc3)=NC(=O)N2)c1 (stereo not drawn) | 3.51 | 308 (≈ 100 µg/mL)
19 | O=C(/C=C/c1ccc(F)cc1)c1ccc([N+](=O)[O-])cc1 | 4.938 | 11.6 (≈ 3.13 µg/mL)
20 | CN(C)c1ccc(/C=C/C(=O)c2ccc([N+](=O)[O-])cc2)cc1 | 4.074 | 84.5 (≈ 25 µg/mL)
21 | O=[N+]([O-])c1ccc(C2=NC(=S)NC(c3ccc(Cl)cc3Cl)C2)cc1 (stereo not drawn) | 4.481 | 32.9 (≈ 12.5 µg/mL)
22 | O=C1N=C(c2ccc([N+](=O)[O-])cc2)CC(c2cccc(Cl)c2)N1 (stereo not drawn) | 4.419 | 38 (≈ 12.5 µg/mL)
23 | CN(C)c1ccc(C2CC(c3ccc([N+](=O)[O-])cc3)=NC(=S)N2)cc1 (stereo not drawn) | 3.848 | 141 (≈ 50.1 µg/mL)
24 | COc1ccc(C2CC(c3ccc([N+](=O)[O-])cc3)=NN2)cc1OC (stereo not drawn) | 3.813 | 154 (≈ 50.4 µg/mL)
25 | O=[N+]([O-])c1ccc(C2=NC(=S)NC(c3ccc(F)cc3)C2)cc1 (stereo not drawn) | 4.418 | 38 (≈ 12.5 µg/mL)
26 | COc1ccc(C2CC(c3ccc([N+](=O)[O-])cc3)=NC(=O)N2)cc1OC (stereo not drawn) | 3.548 | 282 (≈ 100 µg/mL)

Row | SMILES | -logMIC | MIC [µM]
27 | O=C1N=C(c2ccc([N+](=O)[O-])cc2)CC(c2ccc(Cl)cc2Cl)N1 (stereo not drawn) | 4.462 | 34.3 (≈ 12.5 µg/mL)
28 | O=[N+]([O-])c1ccc(C2=NC(=S)NC(c3ccc(Cl)cc3)C2)cc1 (stereo not drawn) | 4.439 | 36.2 (≈ 12.5 µg/mL)
29 | O=C(/C=C/c1ccc(Cl)cc1Cl)c1ccc([N+](=O)[O-])cc1 | 5.315 | 4.84 (≈ 1.56 µg/mL)
30 | COc1ccc(OC)c(/C=C/C(=O)c2ccc([N+](=O)[O-])cc2)c1 | 4.098 | 79.9 (≈ 25 µg/mL)
31 | O=[N+]([O-])c1ccc(C2=NNC(c3cccc(Cl)c3)C2)cc1 (stereo not drawn) | 4.079 | 83.6 (≈ 25.2 µg/mL)
32 | CN(C)c1ccc(C2CC(c3ccc([N+](=O)[O-])cc3)=NC(=O)N2)cc1 (stereo not drawn) | 3.527 | 296 (≈ 100 µg/mL)
33 | COc1cc(C2CC(c3ccc([N+](=O)[O-])cc3)=NN2)cc(OC)c1OC (stereo not drawn) | 3.852 | 141 (≈ 50.3 µg/mL)
34 | COc1cccc(C2CC(c3ccc([N+](=O)[O-])cc3)=NO2)c1 (stereo not drawn) |  | > 169
35 | O=[N+]([O-])c1ccc(C2=NNC(c3ccc(Cl)cc3)C2)cc1 (stereo not drawn) | 4.079 | 83.6 (≈ 25.2 µg/mL)
36 | O=C1N=C(c2ccc([N+](=O)[O-])cc2)CC(c2ccc(F)cc2)N1 (stereo not drawn) | 4.697 | 20 (≈ 6.26 µg/mL)
37 | NNC(=O)c1ccncc1 [ISONIAZID] | 6.447 | 0.357 (≈ 0.049 µg/mL)
38 | COc1ccc(/C=C/C(=O)c2ccc([N+](=O)[O-])cc2)cc1 |  | > 88.3
39 | COc1cc(C2CC(c3ccc([N+](=O)[O-])cc3)=NC(=O)N2)cc(OC)c1OC (stereo not drawn) | 3.585 | 260 (≈ 100 µg/mL)
40 | O=[N+]([O-])c1ccc(C2=NNC(c3ccc(Cl)cc3Cl)C2)cc1 (stereo not drawn) | 4.427 | 37.4 (≈ 12.6 µg/mL)
41 | COc1ccc(OC)c(C2CC(c3ccc([N+](=O)[O-])cc3)=NC(=S)N2)c1 (stereo not drawn) | 3.869 | 135 (≈ 50.1 µg/mL)
42 | O=C(/C=C/c1cccc(Cl)c1)c1ccc([N+](=O)[O-])cc1 | 4.362 | 43.5 (≈ 12.5 µg/mL)
43 | O=C(/C=C/c1ccc(Br)cc1)c1ccc([N+](=O)[O-])cc1 | 5.026 | 9.43 (≈ 3.13 µg/mL)
44 | COc1ccc(C2CC(c3ccc([N+](=O)[O-])cc3)=NC(=S)N2)cc1 (stereo not drawn) | 3.531 | 293 (≈ 100 µg/mL)
45 | COc1cccc(/C=C/C(=O)c2ccc([N+](=O)[O-])cc2)c1 | 4.054 | 88.3 (≈ 25 µg/mL)
46 | COc1cccc(C2CC(c3ccc([N+](=O)[O-])cc3)=NN2)c1 (stereo not drawn) | 3.47 | 339 (≈ 101 µg/mL)
47 | O=[N+]([O-])c1ccc(C2=NOC(c3ccc(Cl)cc3)C2)cc1 (stereo not drawn) | 4.08 | 83.3 (≈ 25.2 µg/mL)
48 | CC[C@@H](CO)NCCN[C@@H](CC)CO [ETHAMBUTOL] | 5.117 | 7.63 (≈ 1.56 µg/mL)
49 | COc1ccc(OC)c(C2CC(c3ccc([N+](=O)[O-])cc3)=NC(=O)N2)c1 (stereo not drawn) |  | > 282
50 | CN(C)c1ccc(C2CC(c3ccc([N+](=O)[O-])cc3)=NN2)cc1 (stereo not drawn) | 3.489 | 323 (≈ 100 µg/mL)
51 | O=C(/C=C/c1ccc(Cl)cc1)c1ccc([N+](=O)[O-])cc1 | 4.362 | 43.5 (≈ 12.5 µg/mL)
52 | O=[N+]([O-])c1ccc(C2=NC(=S)NC(c3ccc(Br)cc3)C2)cc1 (stereo not drawn) | 4.492 | 32 (≈ 12.5 µg/mL)
